Measurements as given in US20220315934A1, “HETEROLOGOUS RIBOSOME GENERATION, […] COMPOSITIONS THEREOF” (priority 2019, published 2022).

Experiments:
Format in all cases: cell-based
E. coli strain S4246 = assay: Antibiotic sensitivity/resistance of erythromycin-resistant strain S4246
Protocol: The erythromycin-resistant strain S4246 was generated using conventional recombineering (76, 77). Briefly, chemically competent S2060 cells were transformed with pKD46 (77) and plated on 2×YT agar plates supplemented with 50 μg mL^−1 carbencillin at 30° C. A single colony was picked, grown at 30° C. in 2×YT liquid medium supplemented with 50 μg mL^−1 carbencillin and 10 mM arabinose, and made chemically competent when the culture reached the appropriate OD600. Chemically competent S2060/pKD46 cells were transformed with the phosphothiorated recombineering oligonucleotide AB5708 (5′-C*T*C*A*[…] CCGCG […]-3′, SEQ ID NO: 403; phosphothirate bonds indicated as *, introduced mutation is bolded) to introduce the rrlA-H A2058U mutation on replichore 2 (76). Following recovery for 3 hours at 30° C., transformed cells were plated on 2×YT agar plates supplemented with 1000 μg mL^−1 erythromycin and incubated at 37° C. to cure the resident pKD46 plasmid. Following overnight growth, single colonies were picked into 2×YT liquid medium supplemented with 50 μg mL^−1 streptomycin, 10 μg mL^−1 tetracycline and 1000 μg mL^−1 erythromycin and allowed to grow overnight at 37° C. To assess the degree of rrlA-H mutagenesis, cultures were used as PCR templates using primers AB5710 (5′-[…]-3′, SEQ ID NO: 404) and AB5711 (5′-[…]-3′, SEQ ID NO: 405), and the PCR products were treated with the endonuclease HpyCH4III (New England Biolabs) according to the manufacturer's guidelines. Wildtype rrlA-H genotypes show no digestion under these conditions, whereas complete conversion results in complete PCR product digestion. Intermediate (incomplete) digestion indicated in incomplete conversion of all seven genomic alleles. The completely converted strain S4246 was confirmed to be sensitive to the following antibiotics (ensures no resistance crosstalk with plasmid-borne markers): carbenicillin (50 μg mL^−1), spectinomycin (100 μg mL^−1), chloramphenicol (40 μg mL^−1), and kanamycin (30 μg mL^−1). The strain was confirmed to be resistant to the following antibiotics: streptomycin (50 μg mL^−1), tetracycline (10 μg mL^−1), and erythromcyin (1000 μg mL^−1).

[1] = system: episome-derived E. coli orthogonal ribosome LSUs; assay: Erythromycin-dependent (ermCL) orthogonal sfGFP reporter in S4246, E. coli orthogonal ribosomes
From the text: (§1) To assess the degree of association between E. coli LSUs and heterologous SSUs, an erythromycin-dependent reporter was developed to distinguish between genome- (E. coli; erythromycin-resistant) and episome-derived (heterologous; erythromycin-sensitive) LSUs. The erythromycin-resistant strain S4246 was developed, wherein all seven genomic 23S genes (rrlA-H) of 52060 cells were mutated (A2058U) (75) to mitigate macrolide binding in the ribosomal exit tunnel (FIG. 18A) (76, 77). rrlA-H A2058U sequences are presented in Table 1.
(§2) Next, the ErmC leader peptide, ermCL, was introduced ahead of the orthogonal sfGFP reporter, ensuring that reporter translation would be abrogated via erythromycin- and ermCL-dependent translational stalling (78) (FIG. 18B).
To validate this sensor, the erythromycin sensitivity of an episome-derived E. coli orthogonal ribosome encoding or lacking the identical A2058U mutation was assessed. A recently described stapled E. coli ribosome (d2d8) (7) that preferentially uses a covalently linked 23S rRNA, with or without the identical mutation was used as a control.

heterologous ribosomes = assay: Erythromycin-dependent orthogonal sfGFP reporter in S4246, heterologous ribosomes
From the text: as §1, §2
This analysis was next extended to a set of 20 functional heterologous ribosomes.

[2] = heterologous ribosomes bearing intermediate homology (92.9-97.0%)

## CC1(C)S[C@@H]2[C@H](NC(=O)C(C(=O)O)c3ccccc3)C(=O)N2[C@H]1C(=O)O (stereo partly drawn) [carbenicillin]
E. coli strain S4246; carbenicillin 50 μg mL^−1
  sensitivity of strain S4246: sensitive

## O=C(N[C@H](CO)[C@H](O)c1ccc([N+](=O)[O-])cc1)C(Cl)Cl [chloramphenicol]
E. coli strain S4246; chloramphenicol 40 μg mL^−1
  sensitivity of strain S4246: sensitive

## CC[C@H]1OC(=O)[C@H](C)[C@@H](O[C@H]2C[C@@](C)(OC)[C@@H](O)[C@H](C)O2)[C@H](C)[C@@H](O[C@@H]2O[C@H](C)C[C@H](N(C)C)[C@H]2O)[C@](C)(O)C[C@@H](C)C(=O)[C@H](C)[C@@H](O)[C@]1(C)O [erythromycin]
[1]; A2058U-LSUs, free and stapled (d2d8)
  change in orthogonal translation upon erythromycin dosing: no appreciable change
[1]; unmutated LSUs, dose-dependent
  change in orthogonal translation upon erythromycin dosing: marked reduction
E. coli strain S4246; Escherichia coli, S4246
  MIC: > 1000 µg/mL
E. coli strain S4246; erythromycin 1000 μg mL^−1
  resistance of strain S4246: resistant
Heterologous ribosomes; [2]
  sfGFP signal upon erythromycin treatment: extensive reduction
  viability upon erythromycin treatment: no associated viability defect
Heterologous ribosomes; heterologous ribosomes with high 16S sequence identity to E. coli (≥99.2%)
  sfGFP translation and cell viability upon erythromycin treatment: dramatic reduction
Heterologous ribosomes; more divergent heterologous ribosomes (79.3-90.3%)
  sfGFP signal upon erythromycin treatment: decreased minimally

## CN[C@@H]1[C@H](O)[C@H](NC)[C@H]2O[C@@]3(O)C(=O)C[C@@H](C)O[C@H]3O[C@@H]2[C@H]1O [spectinomycin]
E. coli strain S4246; spectinomycin 100 μg mL^−1
  sensitivity of strain S4246: sensitive

## [H]/N=C(/N)N[C@H]1[C@H](O)[C@@H](O)[C@H](O[C@@H]2O[C@@H](C)[C@](O)(C=O)[C@H]2O[C@@H]2O[C@@H](CO)[C@H](O)[C@@H](O)[C@@H]2NC)[C@@H](N/C(N)=N\[H])[C@@H]1O [streptomycin]
E. coli strain S4246; streptomycin 50 μg mL^−1
  resistance of strain S4246: resistant
